Laboratory results reported in patent US20090082350A1, “SOLUBLE EPOXIDE HYDROLASE INHIBITORS” (Arete Therapeutics, Inc., priority 2007, published 2009).

Columns and labels:
[1] = test system: soluble epoxide hydrolase (sEH); assay: Fluorescent assay for mouse and human soluble epoxide hydrolase (CMNPC substrate); format: biochemical
From the text: Fluorescent Assay for Mouse and Human Soluble Epoxide Hydrolase
Recombinant mouse sEH (MsEH) and human sEH (HsEH) were produced in a baculovirus expression system as previously reported. Grant et al., J. Biol. Chem., 268:17628-17633 (1993); Beetham et al., Arch. Biochem. Biophys., 305:197-201 (1993). The expressed proteins were purified from cell lysate by affinity chromatography. Wixtrom et al., Anal. Biochem., 169:71-80 (1988). Protein concentration was quantified using the Pierce BCA assay using bovine serum albumin as the calibrating standard. The preparations were at least 97% pure as judged by SDS-PAGE and scanning densitometry. They contained no detectable esterase or glutathione transferase activity which can interfere with the assay. The assay was also evaluated with similar results in crude cell lysates or homogenate of tissues.
The IC50s for each inhibitor were according to the following procedure:
Cyano(2-methoxynaphthalen-6-yl)methyl (3-phenyloxiran-2-yl)methyl carbonate (CMNPC; Jones P. D. et. al.; Analytical Biochemistry 2005; 343: pp. 66-75)
Bis/Tris HCl 25 mM pH 7.0 containing 0.1 mg/mL of BSA (buffer A)
CMNPC at 0.25 mM in DMSO.
Mother solution of enzyme in buffer A (Mouse sEH at 6 μg/mL and Human sEH at […]).
Inhibitor dissolved in DMSO at the appropriate concentration.
In a black 96 well plate, fill all the wells with 150 μL of buffer A.
Add 2 μL of DMSO in well A2 and A3, and then add 2 μL of inhibitor solution in A1 and A4 through A12.
Add […] of buffer A in row A, then mix several time and transfer 150 L to row B. Repeat this operation up to row H. The 150 L removed from row H go to the trash.
Add […] of buffer A in column 1 and 2, then add […] of enzyme solution to column 3 to 12.
Incubate the plate for 5 minutes in the plate reader at 30° C.
During incubation prepare the working solution of substrate by mixing 3.68 mL of buffer A (4×0.920 mL) with 266 μL (2×133 μL) of substrate solution).
At t=0, add 30 L of working substrate solution with multi-channel pipette labeled “Briggs 303” and start the reading ([S]final: 5 μM).
Read with ex: 330 nm (20 nm) and em: 465 nm (20 nm) every 30 second for 10 minutes. The velocities are used to analyze and calculate the IC50s.

[2] = inhibitor concentration 5000 nM
[3] = inhibitor concentration 50000 nM

melting point [°C] | % Inh ([1]; inhibitor concentration 50 nM) [%] | Structure (SMILES) | other results
228 to 231 |  | COc1ccc(-c2cc(NC(=O)Nc3ccc(C(F)(F)F)cc3)[nH]n2)cc1 [Compound 2, 1-(3-(4-methoxyphenyl)-1H-pyrazol-5-yl)-3-(4-(trifluoromethyl)phenyl)urea] | % Inh ([1]; inhibitor concentration 500 nM): 89%
210 to 215 |  | O=C(Nc1cccc(C(F)(F)F)c1)Nc1cc(C(=O)N2CCOCC2)cs1 [Compound 14, 1-(4-(morpholine-4-carbonyl)thiophen-2-yl)-3-(3-(trifluoromethyl)phenyl)urea] | % Inh [1, 2]: 89%
189 to 194 |  | COc1ccc(-c2cc(NC(=O)Nc3cccc(C(F)(F)F)c3)[nH]n2)cc1 [Compound 5, 1-(3-(4-methoxyphenyl)-1H-pyrazol-5-yl)-3-(3-(trifluoromethyl)phenyl)urea] | % Inh [1, 2]: 92%
189 to 192 |  | O=C(Nc1ccc(Cl)cc1)Nc1cc(C(=O)N2CCOCC2)ccn1 [Compound 19, 1-(4-chlorophenyl)-3-(4-(morpholine-4-carbonyl)pyridin-2-yl)urea] | % Inh ([1]; inhibitor concentration 500 nM): 72%
269 to 271 |  | CC(=O)Nc1ccc(NC(=O)Nc2ccc(Cl)cc2)cn1 [Compound 6, N-(5-(3-(4-chlorophenyl)ureido)pyridin-2-yl)acetamide] | % Inh ([1]; inhibitor concentration 500 nM): 87%
250 to 253 | 98 | O=C(Nc1ccc(C(F)(F)F)cc1)Nc1ccc(C(=O)N2CCOCC2)s1 [Compound 3, 1-(5-(morpholine-4-carbonyl)thiophen-2-yl)-3-(4-(trifluoromethyl)phenyl)urea] | 
324 to 328 |  | COc1ccc(-c2nnc(NC(=O)NC34CC5CC(CC(C5)C3)C4)s2)cc1 [Compound 9, 1-adamantan-1-yl-3-(5-(4-methoxyphenyl)-1,3,4-thiadiazol-2-yl)urea] | % Inh [1, 3]: 37%
 |  | COc1ccc(-c2cc(NC(=O)NC34CC5CC(CC(C5)C3)C4)[nH]n2)cc1 [Compound 1, 1-adamantan-1-yl-3-(3-(4-methoxyphenyl)-1H-pyrazol-5-yl)urea] | % Inh [1, 2]: 89%
185 to 188 | 95 | O=C(Nc1ccc(Oc2ccccc2)nc1)NC12CC3CC(CC(C3)C1)C2 [Compound 16, 1-adamantan-1-yl-3-(6-phenoxypyridin-3-yl)urea] | 
114 to 118 |  | O=C(Nc1ccc(C(F)(F)F)cc1)Nc1cncc(C(=O)N2CCOCC2)c1 [Compound 23, 1-(5-(morpholine-4-carbonyl)pyridin-3-yl)-3-(4-(trifluoromethyl)phenyl)urea] | % Inh ([1]; inhibitor concentration 500 nM): 75%
 | 91 | CCOC(=O)c1nnc(NC(=O)NC23CC4CC(CC(C4)C2)C3)s1 [Compound 26, ethyl 5-(3-adamantylureido)-1,3,4-thiadiazole-2-carboxylate] | 
250 to 253 | 73 | O=C(Nc1ccc(C(F)(F)F)cc1)Nc1cc(C(=O)N2CCOCC2)cs1 [Compound 13, 1-(4-(morpholine-4-carbonyl)thiophen-2-yl)-3-(4-(trifluoromethyl)phenyl)urea] | 
252 to 254 | 77 | CC(=O)Nc1ccc(NC(=O)NC23CC4CC(CC(C4)C2)C3)cn1 [Compound 4, N-(5-(3-adamantylureido)pyridin-2-yl)acetamide] | 
242 to 245 | 76 | O=C(Nc1ccc(Cl)cc1)Nc1ccc(C(=O)N2CCOCC2)s1 [Compound 11, 1-(4-chlorophenyl)-3-(5-(morpholine-4-carbonyl)thiophen-2-yl)urea] | 
205 to 211 | 64 | COc1ccc(NC(=O)NC23CC4CC(CC(C4)C2)C3)cn1 [Compound 7, 1-adamantan-1-yl-3-(6-methoxypyridin-3-yl)urea] | 
75 to 80 |  | O=C(Nc1cncc(C(=O)N2CCOCC2)c1)Nc1cccc(C(F)(F)F)c1 [Compound 24, 1-(5-(morpholine-4-carbonyl)pyridin-3-yl)-3-(3-(trifluoromethyl)phenyl)urea] | % Inh [1, 2]: 60%
200 to 206 |  | O=C(Nc1ccc(C(F)(F)F)cc1)Nc1cc(C(=O)N2CCOCC2)ccn1 [Compound 17, 1-(4-(morpholine-4-carbonyl)pyridin-2-yl)-3-(4-(trifluoromethyl)phenyl)urea] | % Inh ([1]; inhibitor concentration 500 nM): 91%
 | 90 | O=C(Nc1ccc(C(F)(F)F)cc1)Nc1ccc(Oc2ccccc2)nc1 [Compound 15, 1-(6-phenoxypyridin-3-yl)-3-(4-(trifluoromethyl)phenyl)urea] | 
233 to 237 |  | O=C(Nc1ccc(C(F)(F)F)cc1)Nc1ccc(C(=O)N2CCOCC2)cn1 [Compound 8, 1-(5-(morpholine-4-carbonyl)pyridin-2-yl)-3-(4-(trifluoromethyl)phenyl)urea] | % Inh ([1]; inhibitor concentration 500 nM): 69%
165 to 170 |  | COc1ccc(-c2cc(NC(=O)Nc3ccc(Cl)cc3)on2)cc1 [Compound 22, 1-(4-chlorophenyl)-3-(3-(4-methoxyphenyl)isoxazol-5-yl)urea] | % Inh [1, 2]: 92%
175 to 179 |  | O=C(Nc1cccc(C(F)(F)F)c1)Nc1cccc(C(=O)N2CCOCC2)n1 [Compound 20, 1-(6-(morpholine-4-carbonyl)pyridin-2-yl)-3-(3-(trifluoromethyl)phenyl)urea] | % Inh [1, 3]: 96%
 |  | O=C(Nc1ncc(C(=O)O)s1)NC12CC3CC(CC(C3)C1)C2 [Compound 25, 2-(3-adamantylureido)thiazole-5-carboxylic acid] | % Inh [1, 3]: 81%
205 to 208 |  | O=C(Nc1ccc(Cl)cc1)Nc1cccc(C(=O)N2CCOCC2)n1 [Compound 18, 1-(4-chlorophenyl)-3-(6-(morpholine-4-carbonyl)pyridin-2-yl)urea] | % Inh [1, 3]: 87%
 |  | CCOC(=O)c1cnc(NC(=O)NC23CC4CC(CC(C4)C2)C3)s1 [Compound 21, ethyl 2-(3-adamantylureido)thiazole-5-carboxylate] | % Inh ([1]; inhibitor concentration 500 nM): 97%
208 to 210 |  | O=C(Nc1ccc(C(F)(F)F)cc1)Nc1cccc(C(=O)N2CCOCC2)n1 [Compound 12, 1-(6-(morpholine-4-carbonyl)pyridin-2-yl)-3-(4-(trifluoromethyl)phenyl)urea] | % Inh [1, 3]: 96%
331 to 336 |  | COc1ccc(-c2nnc(NC(=O)Nc3cccc(C(F)(F)F)c3)s2)cc1 [Compound 10, 1-(5-(4-methoxyphenyl)-1,3,4-thiadiazol-2-yl)-3-(3-(trifluoromethyl)phenyl)urea] | % Inh ([1]; inhibitor concentration 12500 nM): 39%
